Source: ChEMBL document CHEMBL4177550, “Bi- and Tetracyclic Spirotetronates from the Coal Mine Fire Isolate Streptomyces sp. LC-6-2” (J Nat Prod, 2017)
The source made the active and inactive calls.

How the values were obtained:
Staphylococcus aureus = test: Antibacterial activity against Staphylococcus aureus ATCC 6538 up to 60 uM after 16 to 48 hrs; assay type: functional, organism-based
Micrococcus luteus = test: Antibacterial activity against Micrococcus luteus NRRL B-287 up to 60 uM after 16 to 48 hrs; assay type: functional, organism-based
Escherichia coli = test: Antibacterial activity against Escherichia coli NRRL B-3708 up to 60 uM after 16 to 48 hrs; assay type: functional, organism-based
Salmonella enterica = test: Antibacterial activity against Salmonella enterica ATCC 10708 up to 60 uM after 16 to 48 hrs; assay type: functional, organism-based
Saccharomyces cerevisiae = test: Antifungal activity against Saccharomyces cerevisiae ATCC 204508 up to 60 uM after 16 to 48 hrs; assay type: functional, organism-based
A549 = test: Cytotoxicity against human A549 cells assessed as decrease in cell viability up to 10 uM after 48 hrs by resazurin assay; assay type: functional, cell-based

Measured: Activity

C[C@@H]1C[C@H](C)/C(O)=C2/C(=O)O[C@]34C[C@@H](C)[C@]5(C)O[C@]23[C@@H](C[C@H]4[C@@H]5O)C1=O
inactive: all assays above

C[C@H]1C[C@](C)(O)C(=O)[C@@H]2[C@@H](O)[C@H]3[C@H](O)[C@@]4(C)O[C@@]25/C(=C\1O)C(=O)O[C@@]35C[C@H]4CO
inactive: all assays above

CC(=O)C[C@H](C)C(=O)C1=C(O)[C@@]2(C[C@@H](C)C(C)=C[C@H]2/C=C/C(=O)O)OC1=O
inactive: all assays above

C[C@@H]1C[C@H](C)/C(O)=C2/C(=O)O[C@]34C[C@@H](CO)[C@]5(C)O[C@]23[C@@H](C[C@H]4[C@@H]5O)C1=O
inactive: all assays above

C[C@@H]1C[C@H](C)/C(O)=C2/C(=O)O[C@]34C[C@@](C)(O)[C@]5(C)O[C@]23[C@@H](C[C@H]4[C@@H]5O)C1=O
inactive: all assays above

CO[C@H]1[C@H]2[C@H](O)[C@@]3(C)O[C@@]45/C(=C(/O)[C@@H](C)C[C@](C)(O)C(=O)[C@H]14)C(=O)O[C@@]25C[C@H]3C
inactive: all assays above

C[C@@H]1C[C@H](C)C(=O)C2=C3O[C@@]4(C)[C@H](CO)C[C@]3(OC2=O)[C@@H](CCC1=O)[C@@H]4O
inactive: all assays above

C[C@@H]1C[C@H](C)/C(O)=C2/C(=O)O[C@]34C[C@@](C)(O)[C@]5(C)O[C@]23[C@@H](C[C@@]42O[C@H]25)C1=O
inactive: all assays above

C[C@H]1C[C@](C)(O)C(=O)C[C@@H]2/C(=C\1O)C(=O)O[C@]13C[C@H](C)[C@](C)(OC1=O)[C@@H](O)[C@H]23
inactive: all assays above

C[C@@H]1C[C@@]23OC(=O)C4=C2O[C@]1(C)[C@@H](O)[C@@H]3[C@H]1O[C@H]1C(=O)[C@@](C)(O)C[C@H](C)C4=O
inactive: all assays above

C[C@@H]1C[C@]23OC(=O)/C4=C(\O)[C@@H](C)C[C@](C)(O)C(=O)[C@@H]5[C@@H](O)[C@H]2[C@H](O)[C@@]1(C)O[C@@]453
inactive: all assays above

C[C@H]1C[C@](C)(O)C(=O)[C@@H]2[C@@H](O)[C@H]3[C@H](O)[C@@]4(C)O[C@@]25/C(=C\1O)C(=O)O[C@@]35C[C@@]4(C)O
inactive: all assays above
